Measurements: publication PMC2426711 (AIDS Research and Therapy, 2008)
Read-outs that look alike come from different tables or passages of the source.

Assays:
vaginal mucosa = system: vaginal mucosa; parameters: method as in PMID 11162774; details: vaginal toxicity, New Zealand White rabbit; cited from earlier work
HIV-1 [1] = system: HIV-1; parameters: method as in PMID 15790304; details: cited from earlier work
[2] = system: R5-tropic HIV-1Ba-L particles
Protocol: (§5) As expected, no viral production was detected in control wells containing triton X100-treated HIV-1 and activated PBL (negative control).
(§6) HIV-1 was adsorbed on poly-L-lysin pre-coated wells (Greiner Bio-One) at 4°C overnight and further incubated with C14 for 1 h. In positive and negative control wells, 1% Triton X-100 and medium were added, respectively. […] After 6 days, viral production was assessed by p24 Ag capture ELISA.

[3] = system: HIV-1 DNA (R5-HIV-1Ba-L or X4-HIV-1NDK); assay: HIV-1 DNA content of primary cells by real time PCR; details: all primary cells, whatever the viral strain; increasing doses
Protocol: Genomic DNA was isolated from HIV-infected macrophages by using extraction protocol on a silica column system according to the manufacturer's instructions (Qiagen DNA minikit, AG, Basel, Switzerland). […] The LC-PCR master mix contained 1 × Fast-Start Taq DNA polymerase reaction buffer (Roche Applied Science), 3 mM MgCl2, 0.3 μM of each primer and probe. Cycling conditions were as follows: initial denaturation/FastStart Taq DNA polymerase activation at 95°C/10 minutes, 45 cycles of denaturation at 95°C/10 seconds, annealing and extension at 60°C/30 seconds with a ramp of 5°C/seconds. The first PCR cycle allowing fluorescence detection permitted to quantify HIV-1 DNA by reference to a standard curve (dilutions of 8E5 cell DNA). All reactions were performed in triplicate and tested in the same assay. […] The normalized value of cell-associated HIV-1 DNA loads corresponding to the ratio [(HIV-1 copy number/albumin copy number) × 2 × 10^6], was finally expressed as the number of HIV-1 DNA copies per 10^6 cells.
Monocyte-derived macrophages (A), monocyte-derived dendritic cells (B) and T cells (C) were incubated with R5 or X4 viruses in the presence of increasing concentrations of C14 or an unique dose of T 20 (5 μM) for 3 hours at 37°C. […] DNA was extracted and the viral DNA was quantified by real time PCR. […]

R5-tropic HIV-1Ba-L [4] = assay: Inhibition of infection of T cells by R5-HIV-1Ba-L (p24 ELISA); format: cell-based; details: mean ± 1 SD
Protocol: (§1) Primary X4-HIV-1NDK was grown in peripheral blood lymphocytes (PBL) of healthy donors stimulated with PHA and rhIL-2. R5-HIV-1Ba-L was amplified in monocyte-derived macrophages of healthy donors.
(§2) Cells were washed 2 times after 6 days of differentiation and seeded into 96-well culture plates (5 × 10^5 cells/well). HIV-1 (1 ng p24 antigen/ml) and increasing concentrations of molecules were added on cells and incubated for 3 hours at 37°C in a 5% CO2 atmosphere. Each sample was performed in triplicate. After 4 washes to remove exceeding virus, cells were cultured for 3 days. […] In this last case, supernatants were harvested and viruses produced were lysed by incubation for 45 minutes at 37°C with 1% Triton X-100.

R5-tropic HIV-1 = system: R5-tropic HIV-1
Protocol: (§3) To assess the transmission of HIV-1 from MDDC to autologous T-cells, MDDC were incubated into 96-well culture plates (10^5 cells/well) and infected with HIV-1 (1 ng p24) in the presence of increasing concentrations of molecules for 3 hours at 37°C in a 5% CO2 atmosphere. Cells were washed four times and autologous stimulated T cells were added onto infected MDDC at a MDDC/T-cell ratio of 1/5 for 6 days. Each sample was performed in triplicate. Culture supernatants were harvested every 3 days and fresh medium was added. Supernatants were inactivated with 1% Triton X-100. The viral production by T lymphocytes was evaluated the sixth day of the co-culture by measurement of HIV-1 p24 antigen in supernatants using capture ELISA.
(§4) Culture supernatants were harvested after 7 of culture for measurement of HIV p24 antigen.

X4-tropic HIV-1 = system: X4-tropic HIV-1
Protocol: as §3, §4

[5] = system: X4-tropic HIV-1 particles; details: 20 μM
Protocol: as §5, §6

R5-tropic HIV-1Ba-L [6] = assay: Inhibition of infection of macrophages by R5-HIV-1Ba-L (p24 ELISA); format: cell-based; details: MΦ, mean ± 1 SD
Protocol: as §1, §2

X4-tropic HIV-1NDK [7] = assay: Inhibition of infection of dendritic cells by X4-HIV-1NDK (p24 ELISA); format: cell-based; details: DC, mean ± 1 SD
Protocol: as §1, §2

R5-tropic HIV-1Ba-L [8] = details: 1 μM, 3 hours
Protocol: Monocytes or PBL (10E5 cells) were adsorbed on a microscopy-adapted slide for 6 days. MDDC, MDM or PBL were infected in the presence of C14 diluted at 10 μM for 3 hours. Cells were then washed and incubated with or without polyclonal antibodies anti-gp160 (50 μg/ml) at 4°C for 30 minutes. Cells were washed with PBS 0.01% azide 0.5% BSA, and were labelled with polyclonal mouse anti-human IgG-FITC (Jackson ImmunoResearch Laboratories, West Grove, PA, USA) and then fixed with 1% paraformaldehyde. The coverslides were mounted in Mowiol (Sigma-Aldrich). The observations were made by sequential acquisition with a Zeiss LSM510 System, mounted on an Axiovert 100 M optical microscope (Carl Zeiss AG, Oberkochen, Germany), using a planapochromat ×63, 1.4 numerical aperture oil immersion objective. Optical sections were acquired, each one with an image resolution of 512 × 512 pixels.
Cells were incubated with R5-tropic HIV-1Ba-L in the presence of 1 μM of C14 for 3 hours. […]
Monocyte-derived macrophages, monocyte-derived dendritic cells and T cells were incubated with R5 viruses in the presence of increasing concentrations of C14 for 3 hours at 37°C. […] Cells were then analysed by confocal microscopy. […] 30 cells were at least analyzed for each donor.

R5-tropic HIV-1Ba-L [9] = assay: Inhibition of infection of dendritic cells by R5-HIV-1Ba-L (p24 ELISA); format: cell-based; details: DC, mean ± 1 SD
Protocol: as §1, §2

CD4, CXCR4 and CCR5 = details: primary cells treated with C14
Protocol: Cell surface antigens were analyzed by FACSCalibur (Becton Dickinson, NJ, USA) using monoclonal antibodies (mAbs) conjugated with either fluorescein isothiocyanate (FITC) or phyco-erithryn (PE). Following incubation with different mAbs for 30 min at 4°C, cells were washed with PBS containing azide (0.01%), BSA (0.2%) and fixed using 1% formaldehyde PBS buffer.

HIV-1 [10] = system: HIV-1
X4-tropic HIV-1NDK [11] = assay: Inhibition of infection of macrophages by X4-HIV-1NDK (p24 ELISA); format: cell-based; details: MΦ, mean ± 1 SD
Protocol: as §1, §2

X4-tropic HIV-1NDK [12] = assay: Inhibition of infection of T cells by X4-HIV-1NDK (p24 ELISA); format: cell-based; details: mean ± 1 SD
Protocol: as §1, §2

## CCCCCCCCCc1ccc(OCCOCCOCCOCCOCCOCCOCCOCCOCCO)cc1 [nonoxynol-9]
Vaginal mucosa
  score of histological changes: about 8 ± 3

## C=C(C)[C@@H]1CC[C@]2(C(=O)NCCCCCCCC(=O)N[C@@H](CC(C)C)[C@H](O)CC(=O)O)CC[C@]3(C)[C@H](CC[C@@H]4[C@@]5(C)CC[C@H](O)C(C)(C)[C@@H]5CC[C@]43C)[C@@H]12 [IC9564]
HIV-1 [1]
  inhibition of HIV-1 replication, active concentration: nanomolar concentrations

## C=C(C)[C@@H]1CC[C@]2(C(=O)O)CC[C@]3(C)[C@H](CC[C@@H]4[C@@]5(C)CC[C@H](OC(=O)CC(C)(C)C(=O)O)C(C)(C)[C@@H]5CC[C@]43C)[C@@H]12 [PA-457]
HIV-1 [1]
  inhibition of HIV-1 replication, active concentration: nanomolar concentrations

## zinc tetra-ascorbo-camphorate [C14]
[2]
  HIV-1 production by activated PBL, virus treated versus untreated with C14: similar
[3]
  reduction of the HIV-1 DNA content: 2–3 log
R5-tropic HIV-1Ba-L [4]
  IC50: 0.8 µM
R5-tropic HIV-1; 1 μM
  inhibition of HIV-1 transfer from DC to T cells: about 95%
R5-tropic HIV-1; low concentrations
  inhibition of HIV-1 transfer from DC to autologous T cells: more than 90%
X4-tropic HIV-1; 1 μM
  inhibition of HIV-1 transfer from DC to T cells: about 95%
X4-tropic HIV-1; low concentrations
  inhibition of HIV-1 transfer from DC to autologous T cells: more than 90%
[5]
  disruption of HIV-1 particles: 58 ± 2%
R5-tropic HIV-1Ba-L [6]
  IC50: 1.3 ± 1 µM
X4-tropic HIV-1NDK [7]
  IC50: 1.8 ± 0.1 µM
R5-tropic HIV-1Ba-L [8]; T cells
  inhibition of entry of viruses: inhibited the entry of viruses only into T cells
R5-tropic HIV-1Ba-L [8]; macrophages and DCs
  inhibition of entry of viruses: unlike in macrophages and DCs
R5-tropic HIV-1Ba-L [9]
  IC50: 1.3 ± 0.1 µM
CD4, CXCR4 and CCR5
  cell surface expressions of CD4, CXCR4 and CCR5: not altered
HIV-1 [10]; different primary cells
  IC50: 1 µM
HIV-1 [10]; infection of all the primary cells tested
  EC50: 1 µM
X4-tropic HIV-1NDK [11]
  IC50: 0.02 µM
X4-tropic HIV-1NDK [12]
  IC50: 0.7 ± 0.1 µM
